Experimental data taken from paper PMC11318018 (ACS Medicinal Chemistry Letters, 2024).

Target: HiBiT-RR BRD4 (Homo sapiens, UniProt O60885)
Test: Kinetic degradation of HiBiT-RR BRD4 CRISPR knock-in in HEK293 cells
Type: cell-based

Cc1ncsc1-c1ccc(CNC(=O)[C@@H]2C[C@@H](O)CN2C(=O)[C@@H](NC(=O)COCCOCCOCCNC(=O)C[C@@H]2N=C(c3ccc(Cl)cc3)c3c(sc(C)c3C)-n3c(C)nnc32)C(C)(C)C)cc1 [MZ1]
DC50 or Dmax difference HiBiT-KK vs HiBiT-RR BRD4: no significant DC50 or Dmax difference
